Holding throughout (format): functional
In experiment [1] the test system is Blumeria graminis f. sp. tritici. The experiment can be described thus: Fungicidal activity against Blumeria graminis f. sp. tritici inoculated on wheat seedlings pre-treated with compound 24 hr before fungal inoculation assessed as inhibition of wheat powdery mildew disease at 7.8 ppm measured after 10 days under greenhouse conditions relative to untreated control.

Experiment [2] has as its system Podosphaera fuliginea. The experiment can be described thus: Fungicidal activity against Podosphaera fuliginea inoculated on cucumber plants pre-treated with compound 24 hr before fungal inoculation assessed as inhibition of cucumber powdery mildew disease at 7.8 ppm measured after 10 days under greenhouse conditions relative to untreated control.
Experiment [3] relates to Puccinia coronata. The experiment can be described thus: Fungicidal activity against Puccinia coronata inoculated in oat leaves treated with compound 24 hr after fungal inoculation assessed as inhibition of oat crown rust disease at 31.3 ppm measured after 9 days under greenhouse conditions relative to untreated control.
Experiment [4] deals with Puccinia coronata. The experiment can be described thus: Fungicidal activity against Puccinia coronata inoculated in oat leaves pre-treated with compound 24 hr before fungal inoculation assessed as inhibition of oat crown rust disease at 7.8 ppm measured after 9 days under greenhouse conditions relative to untreated control.
In experiment [5] the test system is Puccinia coronata. The experiment is described as follows: Fungicidal activity against Puccinia coronata inoculated in oat leaves pre-treated with compound 24 hr before fungal inoculation assessed as inhibition of oat crown rust disease at 31.3 ppm measured after 9 days under greenhouse conditions relative to untreated control.
The subject of experiment [6] is Botrytis cinerea. The experiment can be described thus: Fungicidal activity against Botryotinia fuckeliana inoculated on cucumber leaves treated with compound 24 hr after fungal inoculation assessed as inhibition of cucumber gray mold disease at 7.8 ppm measured after 3 days under greenhouse conditions relative to untreated control.
A further experiment deals with Pyricularia oryzae. The experiment is described as follows: Inhibition of oxygen consumption in Magnaporthe oryzae submitochondrial particles using NADH substrate.
The subject of experiment [7] is Puccinia coronata. The experiment is described as follows: Fungicidal activity against Puccinia coronata inoculated in oat leaves treated with compound 24 hr after fungal inoculation assessed as inhibition of oat crown rust disease at 7.8 ppm measured after 9 days under greenhouse conditions relative to untreated control.
The test system of experiment [8] is Botrytis cinerea. The experiment is described as follows: Fungicidal activity against Botryotinia fuckeliana inoculated on cucumber leaves pre-treated with compound 24 hr before fungal inoculation assessed as inhibition of cucumber gray mold disease at 31.3 ppm measured after 3 days under greenhouse conditions relative to untreated control.
For experiment [9], the system named is Podosphaera fuliginea. The experiment can be described thus: Fungicidal activity against Podosphaera fuliginea inoculated on cucumber plants treated with compound 24 hr after fungal inoculation assessed as inhibition of cucumber powdery mildew disease at 31.3 ppm measured after 10 days under greenhouse conditions relative to untreated control.
For experiment [10], the system named is Blumeria graminis f. sp. tritici. The experiment can be described thus: Fungicidal activity against Blumeria graminis f. sp. tritici inoculated on wheat seedlings pre-treated with compound 24 hr before fungal inoculation assessed as inhibition of wheat powdery mildew disease at 31.3 ppm measured after 10 days under greenhouse conditions relative to untreated control.

The subject of experiment [11] is Podosphaera fuliginea. The experiment can be described thus: Fungicidal activity against Podosphaera fuliginea inoculated on cucumber plants pre-treated with compound 24 hr before fungal inoculation assessed as inhibition of cucumber powdery mildew disease at 31.3 ppm measured after 10 days under greenhouse conditions relative to untreated control.
For experiment [12], the system named is Botrytis cinerea. The experiment can be described thus: Fungicidal activity against Botryotinia fuckeliana inoculated on cucumber leaves treated with compound 24 hr after fungal inoculation assessed as inhibition of cucumber gray mold disease at 31.3 ppm measured after 3 days under greenhouse conditions relative to untreated control.
Experiment [13] has as its system Botrytis cinerea. The experiment is described as follows: Fungicidal activity against Botryotinia fuckeliana inoculated on cucumber leaves pre-treated with compound 24 hr before fungal inoculation assessed as inhibition of cucumber gray mold disease at 7.8 ppm measured after 3 days under greenhouse conditions relative to untreated control.
Experiment [14] has as its system Blumeria graminis f. sp. tritici. The experiment is described as follows: Fungicidal activity against Blumeria graminis f. sp. tritici inoculated on wheat seedlings treated with compound 24 hr after fungal inoculation assessed as inhibition of wheat powdery mildew disease at 7.8 ppm measured after 10 days under greenhouse conditions relative to untreated control.

Experiment [15] shares this test system. The experiment is described as follows: Fungicidal activity against Blumeria graminis f. sp. tritici inoculated on wheat seedlings treated with compound 24 hr after fungal inoculation assessed as inhibition of wheat powdery mildew disease at 31.3 ppm measured after 10 days under greenhouse conditions relative to untreated control.
Experiment [16] relates to Podosphaera fuliginea. The experiment can be described thus: Fungicidal activity against Podosphaera fuliginea inoculated on cucumber plants treated with compound 24 hr after fungal inoculation assessed as inhibition of cucumber powdery mildew disease at 7.8 ppm measured after 10 days under greenhouse conditions relative to untreated control.
Experiment [17] has as its system Blumeria graminis f. sp. tritici. The experiment is described as follows: Fungicidal activity against Blumeria graminis f. sp. tritici inoculated on wheat seedlings pre-treated with compound 24 hr before fungal inoculation assessed as inhibition of wheat powdery mildew disease at 125 ppm measured after 10 days under greenhouse conditions relative to untreated control.

The test system is the same in experiment [18]. The experiment is described as follows: Fungicidal activity against Blumeria graminis f. sp. tritici inoculated on wheat seedlings pre-treated with compound 24 hr before fungal inoculation assessed as inhibition of wheat powdery mildew disease at 500 ppm measured after 10 days under greenhouse conditions relative to untreated control.
In experiment [19] the test system is Podosphaera fuliginea. The experiment can be described thus: Fungicidal activity against Podosphaera fuliginea inoculated on cucumber plants pre-treated with compound 24 hr before fungal inoculation assessed as inhibition of cucumber powdery mildew disease at 500 ppm measured after 10 days under greenhouse conditions relative to untreated control.

SMILES strings stand for the structures.

What is called inhibition is the percentage by which the read-out fell short of the control. As to `CON=C(c1ccon1)c1ccccc1COc1cc(C)ccc1C`, the inhibition at 7.8 ppm (in [1]; in the experiment on Podosphaera fuliginea [2]) was 90% each time.
By IC50 is commonly meant the midpoint of a concentration-inhibition curve. A low value points to higher potency. On to `CNC(=O)/C(=N/OC)c1ccccc1Oc1cc(C)ccc1C`, for which the inhibition at 31.3 ppm stood at 100% in the experiment on Puccinia coronata [3]; 100% in the experiment with Puccinia coronata [5]; 50% in the experiment on Botrytis cinerea [8]; 100% with Podosphaera fuliginea [9]; 100% in [10]; 100% in the experiment with Podosphaera fuliginea [11]. Further, the inhibition at 31.3 ppm with Botrytis cinerea [12] came out at 50%; in experiment [15] it was 97%. In addition, the inhibition at 7.8 ppm stood at 100% in the experiment with Puccinia coronata [4]; 40% in the experiment on Botrytis cinerea [6]; 100% with Puccinia coronata [7]; 100% in experiment [1]; 100% in the experiment with Podosphaera fuliginea [2]; 40% in the experiment with Botrytis cinerea [13]. Also, the inhibition at 7.8 ppm stood at 97% in experiment [14] and 100% with Podosphaera fuliginea [16]. The molecule also gave an IC50 with Pyricularia oryzae of 0.018 µM.
For `CON=C(C1=NOCC1)c1ccccc1COc1cc(C)ccc1C`, the inhibition at 125 ppm in experiment [17] was determined as 90%. The inhibition at 7.8 ppm in the experiment with Podosphaera fuliginea [2] is 90%.
Regarding `CO/N=C(\c1ccon1)c1ccccc1COc1cc(C)ccc1C`, in experiment [1], the inhibition at 7.8 ppm came out at 90%. For the same molecule, the inhibition at 31.3 ppm with Podosphaera fuliginea [11] came out at 90%.
For `CO/N=C(\c1ccno1)c1ccccc1COc1cc(C)ccc1C`, the inhibition at 500 ppm (in [18]; with Podosphaera fuliginea [19]) was 90% throughout.
In the case of `CON=C(c1cc(C)on1)c1ccccc1COc1cc(C)ccc1C`, in experiment [10], the inhibition at 31.3 ppm was found to be 90%. In addition, the inhibition at 7.8 ppm in the experiment with Podosphaera fuliginea [2] was determined as 90%.
Turning to `CO/N=C(\c1cc(C)no1)c1ccccc1COc1cc(C)ccc1C`, the inhibition at 31.3 ppm with Puccinia coronata [3] turned out to be 100%; in the experiment on Puccinia coronata [5], 97%; in the experiment with Botrytis cinerea [8] it was 30%; in the experiment with Podosphaera fuliginea [9], 100%; in [10] it was 97%; with Podosphaera fuliginea [11], 100%. The inhibition at 31.3 ppm amounted to 20% in the experiment on Botrytis cinerea [12] and 97% in [15]. Also, the inhibition at 7.8 ppm in the experiment with Puccinia coronata [4] was found to be 90%; in the experiment on Botrytis cinerea [6], 0%; in the experiment on Puccinia coronata [7], 97%; in [1], 97%; with Podosphaera fuliginea [2], 100%; with Botrytis cinerea [13] it was 10%. Besides, the figures for the inhibition at 7.8 ppm (in experiment [14]; with Podosphaera fuliginea [16]) were 70% and 100%, respectively. In the experiment on Pyricularia oryzae, the midpoint of inhibition, the IC50, lay at 0.046 µM.
On to `CO/N=C(/C1=NOCC1)c1ccccc1COc1cc(C)ccc1C`, for which the inhibition at 31.3 ppm amounted to 50% in the experiment with Puccinia coronata [3]; 90% in the experiment on Puccinia coronata [5]; 20% with Botrytis cinerea [8]; 100% in the experiment with Podosphaera fuliginea [9]; 90% in [10]; 100% in the experiment on Podosphaera fuliginea [11]. For the same molecule, the figures for the inhibition at 31.3 ppm (with Botrytis cinerea [12]; in experiment [15]) were 20% and 97%, respectively. For the same molecule, the inhibition at 7.8 ppm amounted to 30% in the experiment on Puccinia coronata [4]; 0% with Botrytis cinerea [6]; 0% in the experiment with Puccinia coronata [7]; 90% in experiment [1]; 90% in the experiment on Podosphaera fuliginea [2]; 0% in the experiment on Botrytis cinerea [13]. Moreover, the inhibition at 7.8 ppm turned out to be 70% in experiment [14] and 100% in the experiment with Podosphaera fuliginea [16].
On to `CO/N=C(/C1=NOC(C)C1)c1ccccc1COc1cc(C)ccc1C` (configuration not stated), for which, in experiment [18], the inhibition at 500 ppm was determined as 90%. The inhibition at 31.3 ppm in the experiment with Podosphaera fuliginea [11] stood at 90%.
Take `CO/N=C(/C1=NOC(C)(C)C1)c1ccccc1COc1cc(C)ccc1C`: the inhibition at 500 ppm (in experiment [18]; in the experiment on Podosphaera fuliginea [19]) was under 90% each time.
For the molecule `CO/N=C(\c1ccccc1COc1cc(C)ccc1C)C1CC(C)=NO1` (configuration not stated), the inhibition at 500 ppm in experiment [18] was under 90%. The inhibition at 31.3 ppm in the experiment with Podosphaera fuliginea [11] was 90%.
Take `CO/N=C(/c1ccon1)c1ccccc1COc1cc(C)ccc1C`: the inhibition at 31.3 ppm in the experiment on Puccinia coronata [3] came to 70%; in the experiment with Puccinia coronata [5], 97%; in the experiment with Botrytis cinerea [8] it was 40%; with Podosphaera fuliginea [9], 100%; in experiment [10], 97%; in the experiment on Podosphaera fuliginea [11] it was 100%. Moreover, the inhibition at 31.3 ppm in the experiment on Botrytis cinerea [12] is 30%; in [15], 97%. For the same molecule, the inhibition at 7.8 ppm in the experiment with Puccinia coronata [4] was determined as 90%; in the experiment on Botrytis cinerea [6] it was 30%; in the experiment with Puccinia coronata [7], 30%; in experiment [1] it was 97%; in the experiment on Podosphaera fuliginea [2], 100%; in the experiment on Botrytis cinerea [13], 20%. Further, the inhibition at 7.8 ppm in experiment [14] was 90%; in the experiment on Podosphaera fuliginea [16], 100%. Also, in the experiment with Pyricularia oryzae, 0.103 µM corresponded to half-maximal inhibition (IC50).
Consider `CO/N=C(/c1cc(C)on1)c1ccccc1COc1cc(C)ccc1C`, for which the inhibition at 500 ppm in experiment [18] is under 90%. For the same molecule, the inhibition at 31.3 ppm with Podosphaera fuliginea [11] is 90%.
The like results for `CO/N=C(/c1cc(OC)on1)c1ccccc1COc1cc(C)ccc1C` were, in that order, under 90% and 90%.
For the molecule `CO/N=C(\c1ccccc1COc1cc(C)ccc1C)c1c(C)noc1C`, the results for the inhibition at 500 ppm (in experiment [18]; with Podosphaera fuliginea [19]) were under 90% and 90%, respectively.
`CO/N=C(/c1ccno1)c1ccccc1COc1cc(C)ccc1C`: the inhibition at 31.3 ppm (in experiment [10]; in the experiment with Podosphaera fuliginea [11]) was 90% throughout.
On to `CO/N=C(/c1cc(C)no1)c1ccccc1COc1cc(C)ccc1C`, for which the inhibition at 31.3 ppm in experiment [10] amounted to 90%. For the same molecule, in the experiment on Podosphaera fuliginea [2], the inhibition at 7.8 ppm was determined as 90%.
In the case of `CCc1cc(/C(=N/OC)c2ccccc2COc2cc(C)ccc2C)on1`, the inhibition at 500 ppm in experiment [18] was under 90%; in the experiment with Podosphaera fuliginea [19], 90%.
The like results for `CO/N=C(\Cc1cc(C)no1)c1ccccc1COc1cc(C)ccc1C` were, in that order, under 90% and under 90%.
